Measured values: US10301267B2, “Compounds” (AstraZeneca AB, priority 2006, dated 2019)
pIC50: −log10 of the molar value.

Target: FGFR1 active kinase (Homo sapiens, UniProt P11362)
Test: FGFR Kinase assay - Caliper Echo Dosing
Format: biochemical
Conditions: FGFR1 7.2 nM, 408 uM ATP, acoustic dosing; geometric mean of n
Method: FGFR Kinase Assay—Caliper Echo Dosing
To determine inhibition of FGFR activity, kinase assays were conducted using Caliper technology.
Kinase activity assays were performed in Greiner 384-well low volume plates, with a total reaction volume of 12 ul per well. Final concentration of FGFR1 active kinase in each reaction well was 7.2 nM. The substrate for each assay was a custom peptide with fluorescent tag (13 amino acids in length, […] with the fluorescene tag on the first K).
Compounds were dispensed directly in to assay plates using a Labcyte Echo 550 acoustic droplet ejection unit. Each well received 120 nl of DMSO containing compound such that the final concentration of compound in the assay prior to the addition of the stop solution ranged between 30 uM and 30 pM. In addition to compounds each plate carried maximum and minimum control wells, the max wells contained 120 nl of DMSO and the min wells contained 120 nl of 10 mM staurosporine (LC Laboratories, MA 01801, USA Catalogue No. S-9300). The Enzyme (at 7.2 nM [final]) and Substrate (at 3.6 uM [final]) were added separately to the compound plates, in reaction buffer [comprising: 50 mM MOPS (Sigma, Catalogue No. M1254)—pH 6.5, 0.004% Triton (Sigma, Catalogue No. X-100), 2.4 mM DTT, 12 mM MgCl2, 408 uM ATP] resulting in a final DMSO concentration in the reaction mix of 1%.
Assay plates were incubated at room temperature for 1.5 h, before the reaction was stopped with the addition of buffer [comprising: 100 mM HEPES—pH7.5, 0.033% Brij-35 (Sigma Catalogue No. B4184), 0.22% Caliper Coating Reagent #3 (Caliper Life Sciences Catalogue No. 760050), 88 mM EDTA, 5% DMSO]. Stopped assay plates were then read using the Caliper LabChip® LC3000 (which uses microfludics to measure a shift in mobility between fluorescent labelled peptide and the FGFR1 kinase—phosphorylated form of this peptide).
In the assay, compounds were tested at a range of concentrations. […] Percentage inhibition at 1 uM, as expressed herein, is a calculated value based on the curve fit that was generated experimentally. From the fitted curve plot, the effect of compound at a concentration of 1 uM was calculated as a percentage inhibition. The IC50 is the concentration of compound, which inhibits FGFR1 kinase activity by 50% in the context of this assay. This value is calculated using a standard curve fitting software package Origin™.

Chain of FGFR1 active kinase (P11362 22-822): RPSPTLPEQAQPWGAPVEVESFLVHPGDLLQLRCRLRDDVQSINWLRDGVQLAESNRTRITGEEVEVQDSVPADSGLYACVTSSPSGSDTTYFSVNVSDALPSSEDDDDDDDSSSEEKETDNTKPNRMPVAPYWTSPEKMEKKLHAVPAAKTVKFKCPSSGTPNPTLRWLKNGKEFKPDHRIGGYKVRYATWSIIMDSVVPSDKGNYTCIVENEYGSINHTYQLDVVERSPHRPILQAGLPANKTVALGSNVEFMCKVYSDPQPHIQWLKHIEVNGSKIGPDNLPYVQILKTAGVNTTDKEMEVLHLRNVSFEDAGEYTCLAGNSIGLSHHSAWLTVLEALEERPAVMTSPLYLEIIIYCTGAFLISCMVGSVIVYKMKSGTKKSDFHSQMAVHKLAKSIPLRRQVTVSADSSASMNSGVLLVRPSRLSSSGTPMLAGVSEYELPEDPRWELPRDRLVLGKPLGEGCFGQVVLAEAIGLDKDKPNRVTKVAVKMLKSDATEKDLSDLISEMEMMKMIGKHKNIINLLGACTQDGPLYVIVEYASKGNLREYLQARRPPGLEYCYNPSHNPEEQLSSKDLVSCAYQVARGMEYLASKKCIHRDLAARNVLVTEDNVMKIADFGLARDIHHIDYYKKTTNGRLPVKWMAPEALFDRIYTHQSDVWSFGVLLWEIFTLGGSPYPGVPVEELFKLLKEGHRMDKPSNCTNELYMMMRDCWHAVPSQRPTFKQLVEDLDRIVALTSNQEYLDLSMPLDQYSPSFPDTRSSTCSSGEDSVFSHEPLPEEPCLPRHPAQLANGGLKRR

| SMILES | pIC50 |
| --- | --- |
| COc1cc(CCc2cc(NC(=O)c3ccc(CN(C)CC4CCCO4)cc3)n[nH]2)cc(OC)c1 (centres unmarked) [Example 57, N-[5-[2-(3,5-Dimethoxyphenyl)ethyl]-1H-pyrazol-3-yl]-4-[(methyl-(oxolan-2-ylmethyl)amino)methyl]benzamide] | 8.28 |
| COc1cc(CCc2cc(NC(=O)c3ccc(N4CC(C)N(C)C(C)C4)cc3)n[nH]2)cc(OC)c1 (centres unmarked) [Example 96, N-[5-[2-(3,5-Dimethoxyphenyl)ethyl]-1H-pyrazol-3-yl]-4-(3,4,5-trimethylpiperazin-1-yl)benzamide] | 9.27 |
| COc1cc(COc2cc(NC(=O)c3ccc(N4CCN5CCCCC5C4)cc3)[nH]n2)cc(OC)c1 (centres unmarked) [Example 98, 4-(1,3,4,6,7,8,9,9a-octahydropyrido[2,1-c]pyrazin-2-yl)-N-[5-[(3,5-dimethoxyphenyl)methoxy]-2H-pyrazol-3-yl]benzamide] | 8.52 |
| COc1cc(CCc2cc(NC(=O)c3ccc(C4CCN(C5CC5)CC4)cc3)[nH]n2)cc(OC)c1 [Example 99, 4-(1-Cyclopropylpiperidin-4-yl)-N-[5-[2-(3,5-dimethoxyphenyl)ethyl]-2H-pyrazol-3-yl]benzamide] | 9.04 |
| COc1cc(COc2cc(NC(=O)c3ccc(N4C[C@@H](C)N[C@@H](C)C4)cc3)[nH]n2)cc(OC)c1 [Example 100, N-[5-[(3,5-dimethoxyphenyl)methoxy]-2H-pyrazol-3-yl]-4-[(3R,5S)-3,5-dimethylpiperazin-1-yl]benzamide] | 8.85 |
| COc1cc(COc2cc(NC(=O)c3ccc(N4CCN(C)C(C)C4)cc3)[nH]n2)cc(OC)c1 (centres unmarked) [Example 101, N-[5-[(3,5-dimethoxyphenyl)methoxy]-2H-pyrazol-3-yl]-4-(3,4-dimethylpiperazin-1-yl)benzamide] | 7.68 |
| COc1cc(COc2cc(NC(=O)c3ccc(C4CCN(C)CC4)cc3)[nH]n2)cc(OC)c1 [Example 103, N-[5-[(3,5-dimethoxyphenyl)methoxy]-2H-pyrazol-3-yl]-4-(1-methylpiperidin-4-yl)benzamide] | 9.03 |
| COc1cc(CCc2cc(NC(=O)c3cnc(N4CCN5CCCCC5C4)cn3)[nH]n2)cc(OC)c1 (centres unmarked) [Example 105, 5-(1,3,4,6,7,8,9,9a-Octahydropyrido[2,1-c]pyrazin-2-yl)-N-[5-[2-(3,5-dimethoxyphenyl)ethyl]-2H-pyrazol-3-yl]pyrazine-2-carboxamide] | 6.89 |
| COc1cc(CCc2cc(NC(=O)c3ccc(N4CCN(C)CC4)s3)[nH]n2)cc(OC)c1 [Example 106, N-[5-[2-(3,5-dimethoxyphenyl)ethyl]-2H-pyrazol-3-yl]-5-(4-methylpiperazin-1-yl)thiophene-2-carboxamide] | 9.00 |

Continued by rising pIC50, values first:

| pIC50 | SMILES |
| --- | --- |
| 7.22 | COc1cc(COc2cc(NC(=O)c3cnc(Cl)cn3)[nH]n2)cc(OC)c1 [5-Chloro-N-[5-[(3,5-dimethoxyphenyl)methoxy]-2H-pyrazol-3-yl]pyrazine-2-carboxamide] |
| 7.55 | COc1cc(CCc2cc(NC(=O)c3ccc(N4CCN(C(=O)OC(C)(C)C)CC4)s3)[nH]n2)cc(OC)c1 [Example 102, tert-Butyl 4-[5-[[5-[2-(3,5-dimethoxyphenyl)ethyl]-2H-pyrazol-3-yl]carbamoyl]thiophen-2-yl]piperazine-1-carboxylate] |
| 7.68 | COc1cc(CCc2cc(NC(=O)c3ccc(I)cc3)[nH]n2)cc(OC)c1 [Example 82, N-[5-[2-(3,5-Dimethoxyphenyl)ethyl]-2H-pyrazol-3-yl]-4-iodo-benzamide] |
| 8.89 | COc1cc(COc2cc(NC(=O)c3ccc(N4CCN5CCCC5C4)cc3)[nH]n2)cc(OC)c1 (centres unmarked) [Example 104, 4-(3,4,6,7,8,8a-hexahydro-1H-pyrrolo[2,1-c]pyrazin-2-yl)-N-[5-[(3,5-dimethoxyphenyl)methoxy]-2H-pyrazol-3-yl]benzamide] |
| 9.34 | COc1cc(COc2cc(NC(=O)c3ccc(N4CCN(C)C(C)C4)s3)[nH]n2)cc(OC)c1 (centres unmarked) [Example 97, N-[5-[(3,5-dimethoxyphenyl)methoxy]-2H-pyrazol-3-yl]-5-(3,4-dimethylpiperazin-1-yl)thiophene-2-carboxamide] |
